According to patent US20230130103A1, “TARGETED PHARMACOLOGICAL THERAPEUTICS IN UVEAL MELANOMA” (Washington University, priority 2017, published 2023):
Entries after “also recorded” stand apart in the source; their conditions may differ. Starred links: 1 amine or outer side, 2 acyl side, 3 side chain; linkers in the order of their positions; H or OH if unused. Positions of bridges follow the written chain, without caps; N, C: chain ends. Non-standard residues stand in square brackets, D forms with d. Residues, ends and D or L forms follow the SMILES beside them. *: point of attachment. Leu(3R-OH,Nα-propionyl) = CCC(=O)N[C@H](C(=O)*)[C@H](O)C(C)C; X1 = CC(C)[C@@H](O[*:3])[C@H](N[*:1])C(=O)[*:2]; X2 = CC(C)[C@H](O[*:3])[C@@H](N[*:1])C(=O)[*:2]; NMeaThr = CN[C@H](C(=O)O)[C@H](C)O; dPhLac = O=C(O)[C@H](O)Cc1ccccc1; NMeA = CN[C@@H](C)C(=O)O; NMeDha = C=C(NC)C(=O)O

Assays:
Gαi/q(R54K) [1] = target: T1, Gαi/q(R54K) (Homo sapiens, UniProt P63096, C351G, form not given); format: cell-based; details: read-out: IC50, attenuation of cannabinoid type 1 receptor inhibition of forskolin-induced cAMP accumulation; via Gαi/q(R54K); Neuro2A cells; FIG. 2C
T1 construct: […]

Gαi/q(R54K) [2] = format: cell-based; details: Gαi/q(R54K) vs Gαi/q
92.1 UM cells = assay: RNA-Seq global gene expression, FR vs vehicle; format: cell-based, Human; details: 92.1 cells, 100 nM FR, p<0.001
[3] = tested on: constitutively active Gαq bearing FR binding site mutations; assay: SRE(L) promoter-driven transcriptional reporter; format: cell-based; details: read-out: IC50, inhibition of transcriptional reporter induction
Excerpt: (§1) (FIG. 1A-1C) depicts the effect of FR on the activity state of Gα subunits as determined by interaction with Gβγ or RGS domains in split luciferase complementation assays. FIG. 1A Effect of FR on interaction of Gβγ2 with the indicated wild type (WT) or mutant constitutively active (Q/L) forms of Gα (q) or Gα13 (13). * p<0.01; ** p<0.05. FIG. 1B Potency of FR as a driver of interaction of Gβγ2 with wild type or mutant constitutively active Gαq. FIG. 1C Potency of FR as inhibitor of interaction of RGS2 with mutant constitutively active (Q/L) Gαq, or interaction of the RGS domain of LARG (LARG-RGS) with mutant constitutively active Gα13. FIG. 1D Potency of FR as inhibitor of signal transduction by constitutively active Gαq or Gα13 detected with an SRE(L) promoter-driven transcriptional reporter. Constitutively active Gαq (Q/L), constitutively active Gαq bearing the indicated FR binding site mutations, and constitutively Gα13 (Q/L) were studied.
(§2) Assays of transcriptional reporters driven by YAP or Gα subunits were performed as described (42, 43). YAP- or Ga-driven firefly luciferase activity was normalized to Renilla luciferase expressed from a constitutive promoter.

[4] = tested on: constitutively active Gα13; assay: SRE(L) promoter-driven transcriptional reporter; format: cell-based; details: driven by constitutively active Gα13
Excerpt: as §1, §2

[5] = tested on: constitutively active Gαq; assay: SRE(L) promoter-driven transcriptional reporter; format: cell-based; details: driven by constitutively active Gαq; FIG. 1D; read-out: IC50, inhibition of transcriptional reporter induction
Excerpt: as §1, §2

Mel202 cells [6] = assay: qPCR validation of FR target genes; format: cell-based, Human; details: FR-treated Mel202 cells; FIG. 10
Description: More important, 42% of genes in this cluster are known targets of the polycomb repressive complex 2 (PRC2) during differentiation from embryonic stem cells (FIG. 7D and Table 5), as indicated by gene set enrichment analysis.
92.1 UM cells were treated with 100 nM FR or vehicle (DMSO) in RPMI growth medium and collected after 1 and 3 d of treatment. RNA was isolated using the RNeasy Mini Kit (Qiagen) following the manufacturer's protocol and including the optional DNase I treatment step. RNA quality was assessed on a Bioanalyzer 2100 (Agilent Technologies, Santa Clara, Calif., USA). mRNA was extracted from total RNA using a Dynal mRNA Direct kit, fragmented and reverse transcribed to double stranded cDNA with random primers before addition of adapters for library preparation. Library preparation and HiSeq2500 sequencing were performed by the Washington University Genome Technology Access Center (gtac.wustl.edu). FastQ files were aligned to the transcriptome and the whole-genome with STAR. Biologic replicates were simultaneously analyzed by edgeR and Sailfish analyses of gene-level/exon-level features. […] Significant gene sets from GSEA analyses were combined such that genes associated with multiple related signatures were only counted once and each gene was assigned only to a single combined groupbased on the signature with the highest enrichment score for that gene. […]

Gαi/q [7] = assay: In vitro nucleotide exchange (BODIPY-GTPγS fluorescence); format: biochemical; details: FIG. 2B
92.1 cells = assay: Flow cytometry of DNA content (proliferation and apoptosis); details: 3 d, FIG. 4C-D
Description: (§3) Cells were cultured at 37.0 in 5% CO2. […] Cell lines were grown in RPMI 1640 medium (Life Technologies, Carlsbad, Calif.) supplemented with 10% FBS and antibiotics. Cell viability was measured using a water-soluble tetrazolium salt, WTS-8 (Bimake, Houston, Tex.), following the manufacturer's protocol. Flow cytometry for analysis of cell proliferation and apoptosis was performed at the Siteman Cancer Center Flow Cytometry Core on a FACScan analyzer (BD Biosciences, San Diego Calif., USA) using a standard propidium iodide staining protocol as described previously (44).

OCM-1A UM cells = assay: qPCR validation of FR target genes; format: cell-based, Human; details: OCM-1A cells; FIG. 10
Description: The results for six genes showing significant changes in expression in response to FR by RNA-Seq were validated by qPCR.
92.1 UM cells were treated with 100 nM FR or vehicle (DMSO) in RPMI growth medium and collected after 1 and 3 d of treatment. RNA was isolated using the RNeasy Mini Kit (Qiagen) following the manufacturer's protocol and including the optional DNase I treatment step. RNA quality was assessed on a Bioanalyzer 2100 (Agilent Technologies, Santa Clara, Calif., USA). mRNA was extracted from total RNA using a Dynal mRNA Direct kit, fragmented and reverse transcribed to double stranded cDNA with random primers before addition of adapters for library preparation. Library preparation and HiSeq2500 sequencing were performed by the Washington University Genome Technology Access Center (gtac.wustl.edu). FastQ files were aligned to the transcriptome and the whole-genome with STAR. Biologic replicates were simultaneously analyzed by edgeR and Sailfish analyses of gene-level/exon-level features. Unexpressed genes and exons were removed from the analyses. Unsupervised principal component analysis and volcano plots were generated in Bioconductor using edgeR. Significance Analysis of Microarrays (SAM), Version 4.0 was used to generate a ranked gene list, and a threshold of q<10% and fold-change >2.0 was then used to select the most highly significant genes that were down regulated in FR-treated versus vehicle control cells. This list was used as signature gene sets for Gene Ontology (GO) analysis and Gene Set Enrichment Analysis (GSEA) (45). […] Significant gene sets from GSEA analyses were combined such that genes associated with multiple related signatures were only counted once and each gene was assigned only to a single combined groupbased on the signature with the highest enrichment score for that gene. Significant gene expression changes were validated in all three UM cell lines by qPCR using fast SYBR Green Mastermix (Fisher Scientific) following the manufacturers' protocol. GAPDH was used as an endogenous control.

OCM-1A cells [8] = assay: Flow cytometry of DNA content (proliferation and apoptosis); details: 3 d, FIG. 4C-D
Description: Cells were cultured at 37.0 in 5% CO2. […] Cell lines were grown in RPMI 1640 medium (Life Technologies, Carlsbad, Calif.) supplemented with 10% FBS and antibiotics. […] Flow cytometry for analysis of cell proliferation and apoptosis was performed at the Siteman Cancer Center Flow Cytometry Core on a FACScan analyzer (BD Biosciences, San Diego Calif., USA) using a standard propidium iodide staining protocol as described previously (44).

Gαi/q [9] = target: T2, Gαi/q (Homo sapiens, UniProt P63096, K54R/C351G, form not given); format: cell-based; details: read-out: IC50, attenuation of cannabinoid type 1 receptor inhibition of forskolin-induced cAMP accumulation; via Gαi/q; Neuro2A cells, PTX-treated; FIG. 2C
T2 construct: other: via Gαi/q; the eight substituted residues copy Gαq (GNAQ) but are point changes, not a fused part of Gαq

Mel202 cells [10] = assay: Flow cytometry of DNA content (proliferation and apoptosis); details: 3 d, FIG. 4C-D
Description: as §3

OCM-1A cells [11] = assay: UM cell viability, water-soluble tetrazolium salt assay; details: even at high concentration (10 μM)
Description: as §3

Gαi/q(R54K) [12] = assay: In vitro nucleotide exchange (BODIPY-GTPγS fluorescence); format: biochemical; details: Gαi/q(R54K) vs Gαi/q

T2 sequence (P63096 whole entry V50I/K54R/Y69F/V72L/K180P/V185I/T187Y/H188P/C351G, form open, the tested form may be a part): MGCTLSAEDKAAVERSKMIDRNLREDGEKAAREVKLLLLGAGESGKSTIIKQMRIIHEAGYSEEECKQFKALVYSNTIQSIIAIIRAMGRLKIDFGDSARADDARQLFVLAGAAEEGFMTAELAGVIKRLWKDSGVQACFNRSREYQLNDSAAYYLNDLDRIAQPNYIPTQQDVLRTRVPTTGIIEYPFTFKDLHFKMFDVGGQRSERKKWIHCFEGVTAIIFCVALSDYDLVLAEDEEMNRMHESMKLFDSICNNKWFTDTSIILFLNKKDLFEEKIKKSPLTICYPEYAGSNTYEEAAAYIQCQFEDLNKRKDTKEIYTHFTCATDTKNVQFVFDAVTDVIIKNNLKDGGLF
T1 sequence (P63096 whole entry V50I/Y69F/V72L/K180P/V185I/T187Y/H188P/C351G, form open): as the sequence (P63096 whole entry V50I/K54R/Y69F/V72L/K180P/V185I/T187Y/H188P/C351G, form open, the tested form may be a part) above, with R54K counted along it

## C=C1C(=O)N[C@@H](C)C(=O)N(C)[C@@H](C)C(=O)N[C@H]([C@@H](OC(=O)[C@@H](NC(=O)CC)[C@H](O)C(C)C)C(C)C)C(=O)N(C)[C@@H]([C@H](C)OC)C(=O)O[C@H](C(C)C)[C@H](NC(C)=O)C(=O)O[C@H](Cc2ccccc2)C(=O)N1C [FR, [(1S)-1-[(3S,6R,9S,12S,18R,21S,22R)-21-acetamido-18-benzyl-3-[(1S)-1-methoxyethyl]-4,9,10,12,16-pentamethyl-15-methylidene-2,5,8,11,14,17,20-heptaoxo-22-propan-2-yl-1,19-dioxa-4,7,10,13,16-pentazacyclodocos-6-yl]-2-methylpropyl] (2S,3R)-3-hydroxy-4-methyl-2-(propanoylamino)pentanoate] (Ac-[X1][dPhLac][NMeDha]A[NMeA][X2](Leu(3R-OH,Nα-propionyl))[NMeaThr](Me); ester 1-C)
Gαi/q(R54K) [1]
  IC50: ~800 nM
Gαi/q(R54K) [2]
  fold less potent than toward Gαi/q, cAMP signaling: ~30 fold
92.1 UM cells
  BBC3/PUMA expression decrease: 3.5 fold
  PMAIP1/NOXA expression decrease: 2.5 fold
  p21CIP1 (CDKN1A) expression, down: 3.0 fold
[3]
  IC50: 30 to 70 nM
[4]
  effect on expression of the transcriptional reporter: no effect
[5]
  IC50: 1 nM
Mel202 cells [6]
  RNA-Seq downregulation results checked by quantitative RT-PCR: confirmed
Gαi/q [7]
  in vitro nucleotide exchange: inhibited
92.1 cells
  apoptosis (sub-G1/G0 cells): increased levels of sub-G1/G0 cells
  cell cycle inhibition (decreased levels of S- and G2/M-phase cells): induced cell cycle inhibition
OCM-1A UM cells
  expression of PMP22 and DCT (qPCR): no effect
  expression of PRC2 targets ADRA2A, HAND2, SCARF2 and WT1 (qPCR): unaffected; also recorded: no effect
OCM-1A cells [8]
  cell cycle inhibition and apoptosis: no effect
Gαi/q [9]
  IC50: 25 nM
Mel202 cells [10]
  apoptosis (sub-G1/G0 cells): increased levels of sub-G1/G0 cells
  cell cycle inhibition (decreased levels of S- and G2/M-phase cells): induced cell cycle inhibition
OCM-1A cells [11]
  effect on proliferation: no effect
Gαi/q(R54K) [12]
  fold less potent than toward Gαi/q, nucleotide exchange: ~10 fold
